The results in this text go back to ChEMBL document CHEMBL5724914, “Linking interpersonal differences in gut microbiota composition and drug biotransformation activity” (2024).

Data set [1] in a line: The drug is tested on Z-029 corresponding to rat gut metagenome with ENA study accession number: PRJEB37062 and ENA sample accession number: ERS12561828 for biotransformation under anaerobic condition. The drug concentrations were measured over 9 timepoints collected between 0 and 24 hours of incubation by liquid-chromatography-coupled mass spectrometry (LC–MS). The following applies: 2 µM.

Data set [2] is described as follows: The drug is tested on Z-028 corresponding to mouse gut metagenome with ENA study accession number: PRJEB37062 and ENA sample accession number: ERS12561827 for biotransformation under anaerobic condition. The drug concentrations were measured over 9 timepoints collected between 0 and 24 hours of incubation by liquid-chromatography-coupled mass spectrometry (LC–MS). As to conditions: 2 µM.

Data set [3] can be described thus: The drug is tested on Z-027 corresponding to metagenome with ENA study accession number: PRJEB37062 and ENA sample accession number: ERS12561826 for biotransformation under anaerobic condition. The drug concentrations were measured over 9 timepoints collected between 0 and 24 hours of incubation by liquid-chromatography-coupled mass spectrometry (LC–MS). The following applies: 2 µM.

The nature of data set [4]: The drug is tested on Z-026 corresponding to metagenome with ENA study accession number: PRJEB37062 and ENA sample accession number: ERS12561825 for biotransformation under anaerobic condition. The drug concentrations were measured over 9 timepoints collected between 0 and 24 hours of incubation by liquid-chromatography-coupled mass spectrometry (LC–MS). The following applies: 2 µM.

Data set [5] can be described thus: The drug is tested on Z-018 corresponding to pig gut metagenome with ENA study accession number: PRJEB37062 and ENA sample accession number: ERS12561817 for biotransformation under anaerobic condition. The drug concentrations were measured over 9 timepoints collected between 0 and 24 hours of incubation by liquid-chromatography-coupled mass spectrometry (LC–MS). As to conditions: 2 µM.

A short description of data set [6]: The drug is tested on Z-007 corresponding to rat gut metagenome with ENA study accession number: PRJEB37062 and ENA sample accession number: ERS12561807 for biotransformation under anaerobic condition. The drug concentrations were measured over 9 timepoints collected between 0 and 24 hours of incubation by liquid-chromatography-coupled mass spectrometry (LC–MS). As to conditions: 2 µM.

Data set [7] in a line: The drug is tested on Z-003 corresponding to pig gut metagenome with ENA study accession number: PRJEB37062 and ENA sample accession number: ERS12561803 for biotransformation under anaerobic condition. The drug concentrations were measured over 9 timepoints collected between 0 and 24 hours of incubation by liquid-chromatography-coupled mass spectrometry (LC–MS). As to conditions: 2 µM.

Data set [8] is described as follows: The drug is tested on WLS-310 corresponding to human gut metagenome with ENA study accession number: PRJEB37062 and ENA sample accession number: ERS12561785 for biotransformation under anaerobic condition. The drug concentrations were measured over 9 timepoints collected between 0 and 24 hours of incubation by liquid-chromatography-coupled mass spectrometry (LC–MS). As to conditions: 2 µM.

Data set [9] can be described thus: The drug is tested on WLS-240 corresponding to human gut metagenome with ENA study accession number: PRJEB37062 and ENA sample accession number: ERS12561773 for biotransformation under anaerobic condition. The drug concentrations were measured over 9 timepoints collected between 0 and 24 hours of incubation by liquid-chromatography-coupled mass spectrometry (LC–MS). The following applies: 2 µM.

The nature of data set [10]: The drug is tested on WLS-170 corresponding to human gut metagenome with ENA study accession number: PRJEB37062 and ENA sample accession number: ERS12561762 for biotransformation under anaerobic condition. The drug concentrations were measured over 9 timepoints collected between 0 and 24 hours of incubation by liquid-chromatography-coupled mass spectrometry (LC–MS). The following applies: 2 µM.

Data set [11] is described as follows: The drug is tested on WLS-098 corresponding to human gut metagenome with ENA study accession number: PRJEB37062 and ENA sample accession number: ERS12561754 for biotransformation under anaerobic condition. The drug concentrations were measured over 9 timepoints collected between 0 and 24 hours of incubation by liquid-chromatography-coupled mass spectrometry (LC–MS). The following applies: 2 µM.

The nature of data set [12]: The drug is tested on WLS-077 corresponding to human gut metagenome with ENA study accession number: PRJEB37062 and ENA sample accession number: ERS12561750 for biotransformation under anaerobic condition. The drug concentrations were measured over 9 timepoints collected between 0 and 24 hours of incubation by liquid-chromatography-coupled mass spectrometry (LC–MS). The following applies: 2 µM.

Data set [13] in a line: The drug is tested on WLS-006 corresponding to human gut metagenome with ENA study accession number: PRJEB37062 and ENA sample accession number: ERS12561741 for biotransformation under anaerobic condition. The drug concentrations were measured over 9 timepoints collected between 0 and 24 hours of incubation by liquid-chromatography-coupled mass spectrometry (LC–MS). As to conditions: 2 µM.

For data set [14] the following is noted: human gut metagenome, 24 h, 2 µM.
The conditions of data set [15]: human gut metagenome, 24 h, 2 µM. This is another data set of the same source.
The conditions of data set [16]: human gut metagenome, 24 h, 2 µM. This is another data set of the same source.
For data set [17] the following is noted: human gut metagenome, 24 h, 2 µM. This is another data set of the same source.
For data set [18] the following is noted: human gut metagenome, 24 h, 2 µM. This is another data set of the same source.
The conditions of data set [19]: human gut metagenome, 24 h, 2 µM. This is another data set of the same source.
The conditions of data set [20]: human gut metagenome, 24 h, 2 µM. This is another data set of the same source.

Structures are written as SMILES.
Note: call rule not given here.

On to `CCC(=O)NCC[C@@H]1CCc2ccc3c(c21)CCO3` [RAMELTEON], for which the “Bacterial Biotransformation” value in data set [1] is given as “Compound NOT metabolized”; in [2], “Compound NOT metabolized”; in [3], “Compound NOT metabolized”; in [4], “Compound NOT metabolized”; in [5] it was “Compound metabolized”; in data set [6], “Compound NOT metabolized”. Further, the “Bacterial Biotransformation” value in data set [7], in data set [8], in data set [9], in [10], in data set [11] and in data set [12] was “Compound metabolized” throughout. Also, the “Bacterial Biotransformation” value in [13], in [14], in data set [15], in [16], in data set [17] and in data set [18] was “Compound metabolized” each time. Besides, the “Bacterial Biotransformation” value in data set [19] is on record as “Compound NOT metabolized”; in data set [20], “Compound metabolized”.

On to `CNC(=C[N+](=O)[O-])NCCSCc1ccc(CN(C)C)o1` [RANITIDINE], for which the “Bacterial Biotransformation” value in [1] is given as “Compound metabolized”; in [2], “Compound metabolized”; in data set [3], “Compound NOT metabolized”; in [4], “Compound metabolized”; in data set [5], “Compound metabolized”; in [6], “Compound NOT metabolized”. The “Bacterial Biotransformation” value is given as “Compound metabolized” in data set [7]; “Compound metabolized” in [8]; “Compound NOT metabolized” in data set [9]; “Compound NOT metabolized” in data set [10]; “Compound NOT metabolized” in [11]; “Compound NOT metabolized” in data set [12]. Further, the “Bacterial Biotransformation” value is “Compound metabolized” in data set [13]; “Compound NOT metabolized” in data set [14]; “Compound metabolized” in data set [15]; “Compound metabolized” in data set [16]; “Compound metabolized” in data set [17]; “Compound NOT metabolized” in [18]. Besides, the “Bacterial Biotransformation” value is given as “Compound metabolized” in [19] and “Compound NOT metabolized” in data set [20].

For the compound `Nc1nc2ccc(OC(F)(F)F)cc2s1` [RILUZOLE], the “Bacterial Biotransformation” value was “Compound metabolized” in data set [1]; “Compound NOT metabolized” in [2]; “Compound NOT metabolized” in data set [3]; “Compound metabolized” in data set [4]; “Compound metabolized” in data set [5]; “Compound NOT metabolized” in data set [6]. Also, the “Bacterial Biotransformation” value in data set [7], in data set [8], in data set [9], in data set [10], in [11] and in [12] was “Compound metabolized” throughout. Moreover, the “Bacterial Biotransformation” value in [13] is recorded as “Compound metabolized”; in [14], “Compound metabolized”; in data set [15] it was “Compound NOT metabolized”; in data set [16], “Compound metabolized”; in [17], “Compound metabolized”; in data set [18], “Compound metabolized”. Also, the “Bacterial Biotransformation” value in data set [19] and in data set [20] was “Compound NOT metabolized” in each case.

In the case of `CC(C)c1nc(CN(C)C(=O)N[C@H](C(=O)N[C@@H](Cc2ccccc2)C[C@H](O)[C@H](Cc2ccccc2)NC(=O)OCc2cncs2)C(C)C)cs1` [RITONAVIR], the “Bacterial Biotransformation” value in [1] is listed as “Compound NOT metabolized”; in data set [2], “Compound metabolized”; in data set [3], “Compound metabolized”; in data set [4], “Compound metabolized”; in [5] it was “Compound metabolized”; in data set [6], “Compound NOT metabolized”. The “Bacterial Biotransformation” value in data set [7], in data set [8], in data set [9], in data set [10], in [11] and in [12] was “Compound metabolized” in each case. The “Bacterial Biotransformation” value is “Compound metabolized” in [13]; “Compound NOT metabolized” in data set [14]; “Compound NOT metabolized” in [15]; “Compound metabolized” in data set [16]; “Compound metabolized” in data set [17]; “Compound metabolized” in [18]. The “Bacterial Biotransformation” value in [19] and in data set [20] was “Compound NOT metabolized” each time.

On to `CC(C)NCC(O)c1ccc(NS(C)(=O)=O)cc1` (stereo not given) [SOTALOL], for which the “Bacterial Biotransformation” value in [1], in data set [2], in [3], in data set [4], in [5] and in data set [6] was “Compound NOT metabolized” each time. Besides, the “Bacterial Biotransformation” value in data set [7] is recorded as “Compound NOT metabolized”; in [8], “Compound NOT metabolized”; in [9], “Compound NOT metabolized”; in data set [10], “Compound metabolized”; in [11], “Compound NOT metabolized”; in data set [12], “Compound NOT metabolized”. Besides, the “Bacterial Biotransformation” value in data set [13], in [14], in data set [15], in data set [16], in data set [17] and in [18] was “Compound NOT metabolized” in each case. Moreover, the “Bacterial Biotransformation” value in data set [19] and in data set [20] was “Compound NOT metabolized” throughout.
